From US10377791B2, “Therapeutically active estratrienthiazole derivatives as inhibitors of 17 B-hydroxysteroid dehydrogenase, type 1” (FORENDO PHARMA LTD, priority 2013, dated 2019)

How the values were obtained:
[1] = biological target: T1, recombinant human 17β-HSD1 (Homo sapiens, UniProt P14061); assay: Inhibition of recombinant human 17β-HSD1; format: biochemical; conditions: inhibitor at 1 μM; 30 nM estrone, 1 mM NADPH, 30 min at RT; read-out: 17β-HDS1 Inhibition % at 1 μM
T1 construct: made in house; host or cells: Sd9 (Sf9) insect cells, baculovirus (Bac to Bac Expression System)
T1 sequence (P14061 1-328): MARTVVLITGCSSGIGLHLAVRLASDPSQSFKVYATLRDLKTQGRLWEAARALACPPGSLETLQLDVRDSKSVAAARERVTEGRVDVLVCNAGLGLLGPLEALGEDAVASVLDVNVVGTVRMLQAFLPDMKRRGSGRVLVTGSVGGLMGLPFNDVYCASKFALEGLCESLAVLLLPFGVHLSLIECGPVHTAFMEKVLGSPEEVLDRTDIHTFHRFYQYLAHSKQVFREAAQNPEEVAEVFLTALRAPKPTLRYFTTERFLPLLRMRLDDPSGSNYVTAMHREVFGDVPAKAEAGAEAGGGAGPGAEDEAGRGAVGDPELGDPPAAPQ
Method in brief: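 Microsomal enzyme from baculovirus-infected insect cells (1 μg/ml) incubated 30 min at RT in 20 mM KH2PO4 pH 7.4 with 30 nM ³H-estrone and 1 mM NADPH, inhibitor at 1 μM or 0.1 μM, 1% DMSO. TCA-stopped; estrone/estradiol separated by radio-HPLC; % inhibition = 100 − % conversion.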

[2] = human, tissue homogenate, 1 h
Procedure: The in vitro metabolic stability of the compounds of the invention was determined for exemplified compounds using human liver microsome and homogenate incubations. The incubation time points used with or without appropriate cofactors were 0 min and 60 min. Samples were collected at both time points and substrates were detected using LC/PDA/TOF-MS.

[3] = biological target: T2, recombinant human 17β-HSD2 (Homo sapiens, UniProt P37059); assay: Inhibition of recombinant human 17β-HSD2; format: biochemical; conditions: inhibitor at 1 μM; 50 nM estradiol, 1 mM NADH, 30 min at RT; read-out: 17β-HSD2 Inhibition % at 1 μM
T2 construct: made in house; host or cells: Sd9 (Sf9) insect cells, baculovirus (Bac to Bac Expression System)
T2 sequence (P37059 1-387): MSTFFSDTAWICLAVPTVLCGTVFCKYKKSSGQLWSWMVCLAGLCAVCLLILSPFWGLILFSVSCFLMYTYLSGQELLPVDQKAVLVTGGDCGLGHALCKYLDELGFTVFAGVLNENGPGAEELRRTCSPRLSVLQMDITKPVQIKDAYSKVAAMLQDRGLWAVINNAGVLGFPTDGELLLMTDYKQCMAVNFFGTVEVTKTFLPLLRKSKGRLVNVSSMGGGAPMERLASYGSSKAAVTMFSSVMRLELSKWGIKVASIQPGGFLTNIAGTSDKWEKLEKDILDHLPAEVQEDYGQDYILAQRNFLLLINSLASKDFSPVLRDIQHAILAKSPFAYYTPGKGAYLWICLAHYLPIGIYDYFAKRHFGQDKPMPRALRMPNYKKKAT
Method in brief: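 Membrane extract of baculovirus-expressed enzyme in Sf9 cells (4 μg/ml) incubated in 20 mM KH2PO4 pH 8.5 with 50 nM estradiol (³H-tracer) and 1 mM NADH, 30 min at RT, 1% DMSO, inhibitor at 1 μM or 0.1 μM. TCA-stopped; estradiol-to-estrone conversion by radio-HPLC; % inhibition = 100 − % conversion.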

| Structure (SMILES) | inhibition at 1 µM [1] [%] | In vitro metabolic stability, % remaining after 60 min [2] [%] | inhibition at 1 µM [3] [%] |
| --- | --- | --- | --- |
| Cc1cnc(NC(=O)CC[C@@H]2CC(=O)[C@@]3(C)CCC4c5ccc(OS(C)(=O)=O)cc5CCC4C23)s1 (stereo partly drawn) [Compound 2, Methanesulphonic acid (13S,15R)-13-methyl-15-[2-(5-methylthiazol-2-ylcarbamoyl)-ethyl]-17-oxo-7,8,9,11,12,13,14,15,16,17-decahydro-6H-cyclopenta[a]phenanthren-3-yl ester] | 95 | 25 | 11 |
| Cc1cnc(NC(=O)CC[C@@H]2CC(=O)[C@@]3(C)CCC4c5ccc(OC(=O)C(C)(C)C)cc5CCC4C23)s1 (stereo partly drawn) [Compound 3, 2,2-Dimethyl-propionic acid (13S,15R)-13-methyl-15-[2-(5-methylthiazol-2-ylcarbamoyl)-ethyl]-17-oxo-7,8,9,11,12,13,14,15,16,17-decahydro-6H-cyclopenta[a]phenanthren-3-yl ester] |  | 30 |  |
| Cc1cnc(NC(=O)CC[C@@H]2CC(=O)[C@@]3(C)CCC4c5ccc(OCc6ccccc6)cc5CCC4C23)s1 (stereo partly drawn) [Compound 30, 3-((13S,15R)-3-Benzyloxy-13-methyl-17-oxo-7,8,9,11,12,13,14,15,16,17-decahydro-6H-cyclopenta[a]phenanthren-15-yl)-N-(5-methylthiazol-2-yl)propanamide] |  | 74 |  |
| COc1ccc2c(c1)CCC1C2CC[C@]2(C)C(=O)C(O)[C@@H](CCC(=O)Nc3ncc(C)s3)C12 (stereo partly drawn) [Compound 93, 3-((13S,15S)-16-hydroxy-3-methoxy-13-methyl-17-oxo-7,8,9,11,12,13,14,15,16,17-decahydro-6H-cyclopenta[a]phenanthren-15-yl)-N-(5-methylthiazol-2-yl)propanamide] | 54 |  | 3 |
| Cc1cnc(NC(=O)CC[C@@H]2CC(=O)[C@@]3(C)CCC4c5c([N+](=O)[O-])ccc(O)c5CCC4C23)s1 (stereo partly drawn) [Compound 94, 3-((13S,15R)-4-hydroxy-13-methyl-1-nitro-17-oxo-7,8,9,11,12,13,14,15,16,17-decahydro-6H-cyclopenta[a]phenanthren-15-yl)-N-(5-methylthiazol-2-yl)propanamide] | 95 |  | 4 |
| Cc1cnc(NC(=O)CC[C@@H]2/C(=C/O)C(=O)[C@@]3(C)CCC4c5ccc(O)cc5CCC4C23)s1 (stereo partly drawn) [Compound 95, 3-{(13S,15S)-3-Hydroxy-16-[1-hydroxy-methylidene]-13-methyl-17-oxo-7,8,9,11,12,13,14,15,16,17-decahydro-6H-cyclopenta[a]phenanthren-15-yl}-N-(5-methylthiazol-2-yl)propanamide] | 97 |  | 3 |
| COc1ccc2c(c1)CCC1C2CC[C@]2(C)C(=O)/C(=C/O)[C@@H](CCC(=O)Nc3ncc(C)s3)C12 (stereo partly drawn) [Compound 97, 3-{(13S,15S)-16-[1-Hydroxy-methylidene]-3-methoxy-13-methyl-17-oxo-7,8,9,11,12,13,14,15,16,17-decahydro-6H-cyclopenta[a]phenanthren-15-yl}-N-(5-methylthiazol-2-yl)propanamide] | 92 |  | 11 |
| Cc1cnc(NC(=O)CC[C@@H]2CC(=O)[C@@]3(C)CCC4c5cccc(C(C)(C)C)c5CCC4C23)s1 (stereo partly drawn) [Compound 105, 3-((13S,15R)-4-(tert-butyl)-13-methyl-17-oxo-7,8,9,11,12,13,14,15,16,17-decahydro-6H-cyclopenta[a]phenanthren-15-yl)-N-(5-methylthiazol-2-yl)propanamide] | 90 |  | 16 |
| COc1ccc2c(c1)CCC1C2CC[C@]2(C)C(=O)C[C@@H](CCC(=O)Nc3ncc(C)s3)C12 (stereo partly drawn) [Compound X, 3-((13S,15R)-3-Methoxy-13-methyl-17-oxo-7,8,9,11,12,13,14,15,16,17-decahydro-6H-cyclopenta[a]phenanthren-15-yl)-N-(5-methylthiazol-2-yl)propanamide, reference compound] | 96 |  | 3 |
